Source: patent US12447137B2, “Composition for prevention, amelioration, or treatment of cancer” (EWHA UNIVERSITY—INDUSTRY COLLABORATION FOUNDATION, priority 2019, dated 2025)

What was measured:
4T1 cell line = test: Flow cytometry assay (Annexin V / PI); type: cell-based, mouse; settings: 4T1, 0 to 30 μM, 24 hours; FIG. 6
Procedure: (§1) The breast cancer cell line of Experimental Method 1 was treated with the compound of Production Example 6 at a concentration of 0 to 30 μM and cultured for 24 hours. Thereafter, the cultured cells were detached by trypsin, and then double-stained with Annexin V; recognizing apoptosis) and PI (propidium iodide; recognizing cell necrosis), and then the pattern and level of apoptosis were measured using flow cytometry.

[1] = system: EMT protein markers α-SMA, Vimentin, ZEB-1 and Slug; test: EMT protein marker Western blot, TGF-β1-treated BT549 cells; type: cell-based, human; settings: BT549, with TGF-β1; FIG. 7A
Procedure: The culture medium of the breast cancer cell line of Experimental Method 1 was replaced with a serum-free medium. Then, the cells were treated with 2 ng/mL of TGF-β1 and the compound of Preparation Example 6 and cultured for 20 to 24 hours. Thereafter, as described in Experimental Method 3, the expression level of the protein was measured using an antibody specific for the EMT-related protein.

[2] = Body weight / toxicity in xenograft animal model; type: in vivo, mouse; settings: 4 mg/kg tail vein (IV) once every 3 days, 6 times; FIG. 8C
Excerpt: After 4-week-old athymic nude mice (female) were purchased, only healthy mice were selected while the mice were adapted to the environment of the animal breeding room for 7 days. For identification of each mouse, the ears were marked using an ear punch. In addition, the breeding box was identified by attaching a mouse identification card describing the test number, test substance name, test item, receipt date, test date, test content, and the person in charge of the test. The environment of the animal breeding room was maintained at a temperature of 22±3° C., a relative humidity of 50±20%, 10 to 15 ventilations/hour, a 12-hour light (8:30 to 20:30)/dark cycle, and an illuminance of 150 to 300 lux. In addition, the animals were fed feed and drinking water during the breeding period, and quarantined during the acclimatization and testing periods. […]
During a period ranging from the day the mouse breast cancer cell line 4T1-luc was injected to the end of the experiment (dissection date), the tumor volume was measured every day. […] In order to confirm the tumor regression effect, the volume of the tumor was measured before administration of the compound of Production Example 6, and at day 28 after the first administration of the compound of Production Example 6, the animals were euthanized, and the primary tumors were excised and their volumes were compared.

AMPK = test: Cellular thermal shift assay (CTSA) of AMPK protein, Western blot; type: binding, human; settings: cells treated with compound; AMPK protein alone Tm 50° C.; FIG. 1
Procedure: In order to examine whether or not the compound of Production Example 6 and 13 compounds, including the compounds of Production Examples 1 to 5 and 8 to 15 having a similar structure (YE-01, 02, 03, 04, 05, 08, 09, 10, 11, 12, 13, 14 and 15), bind to the AMP binding site of AMPK, cellular thermal shift assay (CTSA) was performed. Specifically, the cultured human breast cancer-derived cell line (BT549 or MDA-MB-231 cell line) was detached from the culture dish using trypsin. The detached cell line was diluted in PBS, and the same amount of the cells were dispensed in each tube for PCR and heated for 3 minutes at a temperature of room temperature to 65° C. After completion of the heating, protein was isolated from the cell line using liquid nitrogen, and Western blot analysis was performed to confirm the temperature at which AMPK would be denatured by heat.

[3] = system: cleaved-PARP, Bcl-2 and Cyclin D1 proteins; test: Apoptosis marker Western blot in MDA-MB-231 cell line; type: cell-based, human; settings: FIG. 5
p-AMPK (Thr172) [4] = test: AMPK activation by p-AMPK (Thr172) Western blot in gastric cancer cell lines; type: cell-based, human; settings: 10 μM, 12 hours, compared to untreated group
Procedure: (§2) [3-2] The three breast cancer cell lines (4T1, BT549, and MDA-MB-231) of Experimental Method 1 were treated with each of the compound of Production Example 6 and 13 compounds, including the compounds of Production Examples 1 to 5 and 8 to 15 having a similar structure (YE-01, 02, 03, 04, 05, 08, 09, 10, 11, 12, 13, 14 and 15), at a concentration of 10 μM, and then cultured for 24 hours. In addition, each of two types of gastric cancer cell lines, brain cancer cell lines and pancreatic cancer cell lines was treated with the compound of Production Example 6 or the compound of Production Example 8 having a similar structure at a concentration of 10 μM and then cultured for 12 hours. Thereafter, the cells were harvested and lysed in RIPA buffer, and the protein was electrophoresed by SDS-PAGE, and then the expression level of the protein was analyzed using antibodies specific for AMPK and phospho-AMPK (Thr172). GAPDH or β-actin was used as a loading control for protein quantification.

p-AMPK (Thr172) [5] = test: AMPK activation by p-AMPK (Thr172) Western blot in MDA-MB-231 cells; type: cell-based, human; settings: 24 hours
Procedure: (§3) [3-1] The breast cancer cell line of Experimental Method 1 above was treated with the compound of Production Example 6 at a concentration of 0 to 30 μM, and then cultured for 24 hours. Thereafter, the cells were harvested and lysed in RIPA buffer, and the protein was electrophoresed by SDS-PAGE, and then the expression level of the protein was analyzed using antibodies specific for AMPK and phospho-AMPK (Thr172). GAPDH or β-actin was used as a loading control for protein quantification.
as §2

p-AMPK (Thr172) [6] = test: AMPK activation by p-AMPK (Thr172) Western blot in 4T1 cells; type: cell-based, mouse; settings: 24 hours
Procedure: as §3, §2

MDA-MB-231 cell line = test: Flow cytometry assay (Annexin V / PI); type: cell-based, human; settings: MDA-MB-231, 0 to 30 μM, 24 hours; FIG. 6
Procedure: as §1

[7] = system: cleaved-PARP, Bcl-2 and Cyclin D1 proteins; test: Apoptosis marker Western blot in 4T1 cell line; type: cell-based, mouse; settings: FIG. 5

## COc1ccc(OC)c(/C=C/C(=O)c2ccc(NS(=O)(=O)c3ccc(Cl)cc3)cc2)c1 [Production Example 6, (E)-4-chloro-N-(4-(3-(2,5-dimethoxyphenyl)acryloyl)phenyl)benzenesulfonamide]
4T1 cell line
  cells stained with annexin V or PI: increased in a concentration-dependent manner
[1]
  Slug protein: decreased
  Vimentin protein: decreased
  ZEB-1 protein: decreased
  α-SMA protein: decreased
[2]
  weight loss depending on the breeding time: no weight loss
AMPK
  Tm value of AMPK protein: 55 °C
[3]
  level of Bcl-2 protein: decreased
  level of Cyclin D1 protein: decreased
  level of apoptosis marker cleaved-PARP protein: increased
p-AMPK (Thr172) [4]
  expression of p-AMPK: increased
p-AMPK (Thr172) [5]; MDA-MB-231, 0 to 30 μM, FIG. 5
  phospho-AMPK protein: increased in a concentration-dependent manner
p-AMPK (Thr172) [5]; MDA-MB-231, 10 μM, FIG. 3B
  p-AMPK level: effectively increased
p-AMPK (Thr172) [6]; 4T1, 0 to 30 μM, FIG. 5
  phospho-AMPK protein: increased in a concentration-dependent manner
p-AMPK (Thr172) [6]; 4T1, 10 μM, FIG. 3B
  p-AMPK level: effectively increased
MDA-MB-231 cell line
  cells stained with annexin V or PI: increased in a concentration-dependent manner
[7]
  level of Bcl-2 protein: decreased
  level of Cyclin D1 protein: decreased
  level of apoptosis marker cleaved-PARP protein: increased
